{"source": "patent US4317917A", "about": "“Derivatives of methyl-substituted or methoxy-substituted 2-hydroxybenzoic acids, and pharmaceutical formulations containing them” (priority 1979, dated 1982)", "key": {"Micrococcus catarrhalis": {"test_system": "Micrococcus catarrhalis", "assay": "In vitro antibacterial activity, minimum inhibiting concentration (C.M.I.), Micrococcus catarrhalis", "format": "cell-based", "conditions": "Gram (-), Difco nutrient broth", "protocol": "(§1) The antiseptic power of the substance under examination was evaluated by determining the minimum inhibiting concentration (C.M.I.) on a series of Gram negative and Gram positive germs related to the pathology of the respiratory tree.\n(§2) The culture broth used was Difco nutrient broth, and 8 test samples were used for each concentration tested. Guaiacol was used as the comparison drug."}, "Micrococcus pyogenes": {"test_system": "Micrococcus pyogenes", "assay": "In vitro antibacterial activity, minimum inhibiting concentration (C.M.I.), Micrococcus pyogenes", "format": "cell-based", "conditions": "Staphylococcus aureus, Gram (+), Difco nutrient broth", "protocol": "as §1, §2"}, "[1]": {"test_system": "tissues where the drug was introduced", "assay": "Local tolerability check, intramuscular administration in the rat", "format": "in vivo", "conditions": "60-120 mg/kg/die, 25 consecutive days"}, "[2]": {"assay": "Acute toxicity (LD50) in the Swiss mouse", "conditions": "in vivo, 95% reliability limits in brackets, seventh day", "protocol": "(§3) Acute toxicity of the product was studied in the Swiss mouse and Wistar rat by oral and intraperitoneal administration. The substance was carried in 5% gum arabic for both methods of administration. The volumes inoculated for both methods of administration were 20 ml/kg of body weight for the mouse and 5 ml/kg for the rat. The LD50 values expressed in mg/kg were calculated on the seventh day of treatment by the probital analysis method."}, "[3]": {"test_system": "gastric or duodenal lesion", "assay": "Gastric or duodenal lesions in mice treated for 5 consecutive days", "format": "in vivo", "conditions": "200 mg/kg per day"}, "[4]": {"test_system": "edema induced in the rear paw of the rat by carrageen", "assay": "Antiinflammatory activity, edema by carrageen in the rear paw of the rat (method of Winter)", "format": "in vivo, Wistar rat", "protocol": "The antiinflammatory activity of AF1 was evaluated in comparison with that of a known drug (Tanderil®) by inhibiting the edema induced in the rear paw of the rat by carrageen. The method used is that described by Winter.\nThe substances examined were administered orally to Wistar rats having a body weight of 165±15 g.\nThe percentage edema inhibition for the various groups of animals was calculated by putting the average percentage increase of the control group equal to 100."}, "[5]": {"test_system": "conjunctival sac of the eye of a rabbit", "assay": "Local tolerability check, conjunctival sac of the rabbit eye", "format": "in vivo", "conditions": "0.5 solution dropped into conjunctival sac"}, "[6]": {"test_system": "Micrococcus tuberc. (bovis)", "assay": "In vitro antibacterial activity, minimum inhibiting concentration (C.M.I.), Micrococcus tuberc. (bovis)", "format": "cell-based", "conditions": "read-out: Minimum inhibiting concentration", "protocol": "as §1, §2"}, "[7]": {"assay": "Acute toxicity (LD50) in the Wistar rat", "conditions": "in vivo, seventh day", "protocol": "as §3"}, "Sarcina lutea": {"test_system": "Sarcina lutea", "assay": "In vitro antibacterial activity, minimum inhibiting concentration (C.M.I.), Sarcina lutea", "format": "cell-based", "conditions": "Micrococcus luteus, Gram (+), Difco nutrient broth", "protocol": "as §1, §2"}, "painful reaction": {"test_system": "painful reaction", "assay": "Analgesic activity in the mouse (method of Ben Bassat and coll.)", "format": "in vivo", "conditions": "100 mg/kg oral", "protocol": "The analgesic activity of the compound under examination was tested in the mouse by the method of Ben Bassat and coll. (Arch. Int. Pharmacodyn, 122, 434, 1954) and comparing the drug in question with Tanderil® (T)."}, "rat": {"test_system": "rat", "assay": "Subacute toxicity in the rat by intramuscular administration", "format": "in vivo", "conditions": "60 and 120 mg/kg/die, 25 consecutive days", "protocol": "2. Subacute toxicity in the rat by intramuscular administration\nThe test was carried out for 25 consecutive days using drug doses of 60 and 120 mg/kg/die."}, "stomachs": {"test_system": "stomachs", "assay": "Ulcerogenic action in the female Wistar rat", "format": "in vivo", "conditions": "four hours after treatment", "protocol": "The ulcerogenic action of the product was evaluated in the female Wistar rat in comparison with that of other known antiinflammatory drugs.\nThe products were administered orally in a dose corresponding to about two fifths their LD50.\nThe animals were sacrificed four hours after treatment, and the stomachs examined to check any presence of ulcers."}, "Haemophilus influeniae": {"test_system": "Haemophilus influeniae", "assay": "In vitro antibacterial activity, minimum inhibiting concentration (C.M.I.), Haemophilus influeniae", "format": "cell-based", "conditions": "Gram (-), Difco nutrient broth", "protocol": "as §1, §2"}, "edema induced by kaolin": {"test_system": "edema induced by kaolin", "assay": "Antiinflammatory activity, edema by kaolin, diameter of the tibiotarsal joint", "format": "in vivo, rat", "protocol": "The antiedematous action of AF1 was also investigated by the test of Conbon and coll. (Arch.Int.Pharmacodyn. 99; 474, 1954), consisting of measuring the diameter of the tibiotarsal joint in both the rear paws of the rat. Groups of five animals representing controls and treated animals were used for two separate experiments. 0.2 ml of a sterile 10% kaolin suspension was injected directly into the joint of the two rear paws of each animal.\nThe joint diameter was measured one hour after the kaolin injection and then every 24 hours afterwards for five consecutive days. The AF1 compound was administered intraperitoneally in a quantity of 100 mg/kg one hour after the kaolin injection and at the same time on the following days over the entire test period."}, "[8]": {"conditions": "day 1 after kaolin, 100 mg/kg/day intraperitoneally"}, "[9]": {"conditions": "day 2 after kaolin, 100 mg/kg/day intraperitoneally"}, "[10]": {"conditions": "day 3 after kaolin, 100 mg/kg/day intraperitoneally"}, "[11]": {"conditions": "day 4 after kaolin, 100 mg/kg/day intraperitoneally"}, "[12]": {"conditions": "day 5 after kaolin, 100 mg/kg/day intraperitoneally"}}}
{"smiles": "Cc1ccc(OC(=O)C=Cc2ccccc2)c(C(=O)O)c1", "note": "[AF1, 2-(3-phenyl-2-propenoyloxy)-5-methylbenzoic acid]", "values": [{"measurement": "MIC", "setting": "Micrococcus catarrhalis", "result": 4.3, "unit": "mg/mL"}, {"measurement": "MIC", "setting": "Micrococcus pyogenes", "result": 16.6, "unit": "mg/mL"}, {"measurement": "macroscopic change in the tissues where the drug was introduced", "setting": "[1]", "result": "no macroscopic change in the tissues where the drug was introduced"}, {"measurement": "other undesirable local phenomena", "setting": "[1]", "result": "neither were other undesirable local phenomena observed"}, {"measurement": "LD50 at 168 h", "setting": "[2]; ip", "result": 410, "unit": "mg/kg"}, {"measurement": "LD50 at 168 h", "setting": "[2]; oral", "result": 902, "unit": "mg/kg"}, {"measurement": "gastric or duodenal lesion", "setting": "[3]", "result": "no sign of any gastric or duodenal lesion"}, {"measurement": "Percentage edema inhibition relative to the controls", "setting": "[4]; 25 mg/kg oral, 4 hours", "result": 42, "unit": "%"}, {"measurement": "Percentage edema inhibition relative to the controls", "setting": "[4]; 25 mg/kg oral, 6 hours", "result": 71, "unit": "%"}, {"measurement": "Percentage edema inhibition relative to the controls", "setting": "[4]; 50 mg/kg oral, 4 hours", "result": 62, "unit": "%"}, {"measurement": "Percentage edema inhibition relative to the controls", "setting": "[4]; 50 mg/kg oral, 6 hours", "result": 84, "unit": "%"}, {"measurement": "Percentage edema inhibition relative to the controls", "setting": "[4]; 75 mg/kg oral, 4 hours", "result": 73, "unit": "%"}, {"measurement": "Percentage edema inhibition relative to the controls", "setting": "[4]; 75 mg/kg oral, 6 hours", "result": 87, "unit": "%"}, {"measurement": "irritating or damaging modification to local tissues", "setting": "[5]", "result": "no irritating or otherwise damaging modification to local tissues"}, {"measurement": "MIC", "setting": "[6]", "result": 3.15, "unit": "mg/mL"}, {"measurement": "LD50 at 168 h", "setting": "[7]; ip, 95% reliability limits in brackets", "result": 734, "unit": "mg/kg"}, {"measurement": "LD50 at 168 h", "setting": "[7]; oral", "result": "> 2000", "unit": "mg/kg"}, {"measurement": "MIC", "setting": "Sarcina lutea", "result": 9.15, "unit": "mg/mL"}, {"measurement": "% Increase in the painful reaction time relative to the controls", "setting": "painful reaction; 30 min.", "result": 22, "unit": "%"}, {"measurement": "% Increase in the painful reaction time relative to the controls", "setting": "painful reaction; 60 min.", "result": 32, "unit": "%"}, {"measurement": "% Increase in the painful reaction time relative to the controls", "setting": "painful reaction; 90 min.", "result": 36, "unit": "%"}, {"measurement": "% Increase in the painful reaction time relative to the controls", "setting": "painful reaction; 120 min.", "result": 48, "unit": "%"}, {"measurement": "% Increase in the painful reaction time relative to the controls", "setting": "painful reaction; 150 min.", "result": 51, "unit": "%"}, {"measurement": "condition of the rats", "setting": "rat", "result": "always excellent"}, {"measurement": "significant changes in general condition and weight", "setting": "rat", "result": "neither were there significant changes in general condition and weight"}, {"measurement": "No. of ulcerated animals/No. of treated animals", "setting": "stomachs; 400 mg/kg oral", "result": "0/10"}, {"measurement": "No. of ulcerated animals/No. of treated animals", "setting": "stomachs; 800 mg/kg oral", "result": "1/10"}, {"measurement": "MIC", "setting": "Haemophilus influeniae", "result": 16, "unit": "mg/mL"}, {"measurement": "Average of diameters, treated animals", "setting": "edema induced by kaolin; 0 + 1 hour after kaolin (time of first AF1 dose)", "result": 6.9, "unit": "mm"}, {"measurement": "Average of diameters, treated animals", "setting": "edema induced by kaolin; day 0 (baseline, before AF1)", "result": 5.8, "unit": "mm"}, {"measurement": "% change in tibiotarsal joint diameter relative to controls", "setting": "edema induced by kaolin; [8]", "result": -11.1, "unit": "%"}, {"measurement": "Average of diameters, treated animals", "setting": "edema induced by kaolin; [8]", "result": 8.8, "unit": "mm"}, {"measurement": "% change in tibiotarsal joint diameter relative to controls", "setting": "edema induced by kaolin; [9]", "result": -14.7, "unit": "%"}, {"measurement": "Average of diameters, treated animals", "setting": "edema induced by kaolin; [9]", "result": 8.7, "unit": "mm"}, {"measurement": "% change in tibiotarsal joint diameter relative to controls", "setting": "edema induced by kaolin; [10]", "result": -26.6, "unit": "%"}, {"measurement": "Average of diameters, treated animals", "setting": "edema induced by kaolin; [10]", "result": 8.0, "unit": "mm"}, {"measurement": "% change in tibiotarsal joint diameter relative to controls", "setting": "edema induced by kaolin; [11]", "result": -23.3, "unit": "%"}, {"measurement": "Average of diameters, treated animals", "setting": "edema induced by kaolin; [11]", "result": 7.9, "unit": "mm"}, {"measurement": "% change in tibiotarsal joint diameter relative to controls", "setting": "edema induced by kaolin; [12]", "result": -25.7, "unit": "%"}, {"measurement": "Average of diameters, treated animals", "setting": "edema induced by kaolin; [12]", "result": 7.5, "unit": "mm"}]}
{"smiles": "COc1ccccc1O", "note": "[Guaiacol, reference compound]", "values": [{"measurement": "MIC", "setting": "Micrococcus catarrhalis", "result": 16.6, "unit": "mg/mL"}, {"measurement": "MIC", "setting": "Micrococcus pyogenes", "result": 33, "unit": "mg/mL"}, {"measurement": "MIC", "setting": "[6]", "result": 33, "unit": "mg/mL"}, {"measurement": "MIC", "setting": "Sarcina lutea", "result": 33, "unit": "mg/mL"}, {"measurement": "MIC", "setting": "Haemophilus influeniae", "result": 33, "unit": "mg/mL"}]}
{"smiles": "COc1ccc2cc([C@H](C)C(=O)O)ccc2c1", "note": "[Naproxen, reference compound]", "values": [{"measurement": "No. of ulcerated animals/No. of treated animals", "setting": "stomachs; 200 mg/kg oral", "result": "5/10"}]}
{"smiles": "CCCCC1C(=O)N(c2ccccc2)N(c2ccc(O)cc2)C1=O", "note": "(stereo not shown) [Tanderil, reference compound]", "values": [{"measurement": "Percentage edema inhibition relative to the controls", "setting": "[4]; 25 mg/kg oral, 4 hours", "result": 58, "unit": "%"}, {"measurement": "Percentage edema inhibition relative to the controls", "setting": "[4]; 25 mg/kg oral, 6 hours", "result": 68, "unit": "%"}, {"measurement": "Percentage edema inhibition relative to the controls", "setting": "[4]; 50 mg/kg oral, 4 hours", "result": 56, "unit": "%"}, {"measurement": "Percentage edema inhibition relative to the controls", "setting": "[4]; 50 mg/kg oral, 6 hours", "result": 78, "unit": "%"}, {"measurement": "% Increase in the painful reaction time relative to the controls", "setting": "painful reaction; 30 min.", "result": 11, "unit": "%"}, {"measurement": "% Increase in the painful reaction time relative to the controls", "setting": "painful reaction; 60 min.", "result": 14, "unit": "%"}, {"measurement": "% Increase in the painful reaction time relative to the controls", "setting": "painful reaction; 90 min.", "result": 15, "unit": "%"}, {"measurement": "% Increase in the painful reaction time relative to the controls", "setting": "painful reaction; 120 min.", "result": 20, "unit": "%"}, {"measurement": "% Increase in the painful reaction time relative to the controls", "setting": "painful reaction; 150 min.", "result": 21, "unit": "%"}]}
